Source: patent publication US20260240200A1, “COMPOSITION COMPRISING AN N-GUANYLAMINO ACID FOR DRINKING WATER APPLICATION” (Evonik Operations GmbH, priority 2023, published 2026)

Assays:
[1] = Determination of the dissolution time in 10 L tap water, neither stirred nor moved; format: physicochemical; conditions: not stirred or moved
Protocol: The mixture was neither stirred nor moved. After 3 minutes there was no solid mixture at the bottom of the beaker.
A beaker with 10 L tap water was provided and 3 g (25.3 mmol) guanidinoacetic acid (GAA, powder, purchased from Gendone, China) was added. The powder sank to the bottom of the beaker. The mixture was not stirred or moved. After 4 days, no solid material was recognizable any more at the bottom of the beaker.

[2] = 15° C.; cited from earlier work

N=C(N)NCC(=O)O [guanidinoacetic acid]
dissolution time (no solid material recognizable at the bottom of the beaker) [1]: ≤ 4 days | solubility in water [2]: 1 g in 278 ml water
